target: T1, human cGAS (residues 161-522) (Homo sapiens, UniProt Q8N884); assay: cGAS Activity Assay—Malachite Green; type: biochemical; conditions: recombinant purified human cGAS 25 nM; 80 μM ATP, 80 μM GTP, 100 nM ISD; 4 hour at RT; phosphate detection by Malachite Green
T1 construct: human cGAS (residues 161-522); made in house
Outline: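 Human cGAS (161-522, 25 nM) in 20 mM TRIS pH 7.5, 5 mM MgCl2, 0.01% BSA with 80 μM ATP, 80 μM GTP and 100 nM ISD DNA, 4 h at RT. Pyrophosphate converted by PPase, phosphate read with Malachite Green at 620 nm; IC50 from 4-parameter fit of 16-point series.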

T1 sequence (Q8N884 161-522): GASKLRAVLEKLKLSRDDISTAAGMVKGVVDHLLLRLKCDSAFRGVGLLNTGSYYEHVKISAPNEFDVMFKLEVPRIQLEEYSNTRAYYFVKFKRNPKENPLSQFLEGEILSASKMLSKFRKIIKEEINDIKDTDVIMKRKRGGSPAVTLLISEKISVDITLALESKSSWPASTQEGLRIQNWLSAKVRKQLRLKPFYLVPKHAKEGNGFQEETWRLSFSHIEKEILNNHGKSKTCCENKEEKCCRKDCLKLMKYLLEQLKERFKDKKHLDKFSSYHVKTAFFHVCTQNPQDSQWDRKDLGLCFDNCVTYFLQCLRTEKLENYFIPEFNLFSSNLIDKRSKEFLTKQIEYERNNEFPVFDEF

SMILES	IC50 [nM]
Cc1oncc1/C(O)=C(\C#N)C(=O)Nc1ccc(S(=O)(=O)N(C)CCN(C)C)cc1 [Example 120, (Z)-2-cyano-N-(4-(N-(2-(dimethylamino)ethyl)-N-methylsulfamoyl)phenyl)-3-hydroxy-3-(5-methylisoxazol-4-yl)acrylamide]	670
Cc1oncc1/C(O)=C(\C#N)C(=O)Nc1ccc(S(=O)(=O)c2ccc(C#N)cc2)cc1 [Example 121, (Z)-2-Cyano-N-(4-((4-cyanophenyl)sulfonyl)phenyl)-3-hydroxy-3-(5-methylisoxazol-4-yl)acrylamide]	380
Cc1oncc1/C(O)=C(\C#N)C(=O)Nc1ccc(S(=O)(=O)c2ccccc2C#N)cc1 [Example 122, (Z)-2-cyano-N-(4-((2-cyanophenyl)sulfonyl)phenyl)-3-hydroxy-3-(5-methylisoxazol-4-yl)acrylamide]	130
Cc1oncc1/C(O)=C(\C#N)C(=O)Nc1ccc(S(=O)(=O)c2cccnc2)cc1 [Example 123, (Z)-2-cyano-3-hydroxy-3-(5-methylisoxazol-4-yl)-N-(4-(pyridin-3-ylsulfonyl)phenyl) acrylamide]	210
Cc1oncc1/C(O)=C(\C#N)C(=O)Nc1ncc(OCC2CC2)c(-c2ccc(Cl)cc2)n1 [Example 125, (Z)-N-(4-(4-chlorophenyl)-5-(cyclopropylmethoxy)pyrimidin-2-yl)-2-cyano-3-hydroxy-3-(5-methylisoxazol-4-yl)acrylamide]	2910
Cc1oncc1/C(O)=C(\C#N)C(=O)Nc1ncc(OCC(F)(F)F)c(-c2ccc(Cl)cc2)n1 [Example 127, (Z)-N-(4-(4-chlorophenyl)-5-(2,2,2-trifluoroethoxy)pyrimidin-2-yl)-2-cyano-3-hydroxy-3-(5-methylisoxazol-4-yl)acrylamide]	2340
COc1ccc(CCc2cnc(NC(=O)/C(C#N)=C(\O)c3cnoc3C)nc2C(F)(F)F)cn1 [Example 130, (Z)-2-cyano-3-hydroxy-N-(5-(2-(6-methoxypyridin-3-yl)ethyl)-4-(trifluoromethyl)pyrimidin-2-yl)-3-(5-methylisoxazol-4-yl)acrylamide]	1220
Cc1oncc1/C(O)=C(\C#N)C(=O)Nc1ncc(CCc2ccccc2)c(C(F)(F)F)n1 [Example 131, (Z)-2-cyano-3-hydroxy-3-(5-methylisoxazol-4-yl)-N-(5-phenethyl-4-(trifluoromethyl)pyrimidin-2-yl)acrylamide]	2180

Continued, values first:

IC50 [nM]	SMILES
170	COc1cnc(NC(=O)/C(C#N)=C(\O)c2cnoc2C)nc1-c1ccccc1 [Example 124, (Z)-2-cyano-3-hydroxy-N-(5-methoxy-4-phenylpyrimidin-2-yl)-3-(5-methylisoxazol-4-yl)acrylamide]
420	COCCOc1cnc(NC(=O)/C(C#N)=C(\O)c2cnoc2C)nc1-c1ccccc1 [Example 126, (Z)-2-cyano-3-hydroxy-N-(5-(2-methoxyethoxy)-4-phenylpyrimidin-2-yl)-3-(5-methylisoxazol-4-yl)acrylamide]
370	COCCOc1cnc(NC(=O)/C(C#N)=C(\O)c2cnoc2C)nc1CCc1ccccc1 [Example 128, (Z)-2-cyano-3-hydroxy-N-(5-(2-methoxyethoxy)-4-phenethylpyrimidin-2-yl)-3-(5-methylisoxazol-4-yl)acrylamide]
520	COc1cnc(NC(=O)/C(C#N)=C(\O)c2cnoc2C)nc1CCc1ccccc1 [Example 129, (Z)-2-cyano-3-hydroxy-N-(5-methoxy-4-phenethylpyrimidin-2-yl)-3-(5-methylisoxazol-4-yl)acrylamide]
190	Cc1oncc1/C(O)=C(\C#N)C(=O)Nc1ncc(C(=O)N(C)Cc2ccccc2)c(-c2ccccc2)n1 [Example 132, (Z)—N-Benzyl-2-(2-cyano-3-hydroxy-3-(5-methylisoxazol-4-yl)acrylamido)-N-methyl-4-phenylpyrimidine-5-carboxamide]

— patent US20230242494A1, “MALONITRILE DERIVATIVES” (Hoffmann-La Roche Inc., priority 2020, published 2023)
